{
  "source": "patent US20220117993A1",
  "about": "“Compounds Useful in HIV Therapy” (GlaxoSmithKline Intellectual Property (No. 2) Limited, priority 2018, published 2022)",
  "assay": "Rat pharmacokinetics, single intramuscular injection",
  "format": "in vivo, Male Wistar Han rats",
  "details": "single IM dose 20 mg/kg, suspension 10 mg/mL; EFdA in blood, FIG. 2 and 3",
  "experimental": "The pharmacokinetics of Compounds 6 and 21 after a single intramuscular (IM) injection were evaluated in Male Wistar Han rats. The test compound was suspended in a 2% P407, 2% PEG3350, 3.5% Mannitol formulation at 10 mg/mL concentration. A single dose of 20 mg/kg of test compound was injected (2 mL/kg) IM into the right gastrocnemius muscle (n=3). Blood samples were collected via a lateral tail vein at the following time points: Day 1 [30 min, 1 h, 3 h, 5 h, 7 h], Days 2-5, Days 7, 10, 14, 17, 21, 24, 28, 31, 35, 38, 42, 45, 49, 52, 56, 59, 63, 66 and 70, etc. To evaluate test compound and EFdA concentrations, approximately 150 μL of blood was collected into a NaFL/Na2EDTA tube. Exactly 150 μL of blood was then pipetted into a new tube, mixed with 150 μL of 100 mM ammonium acetate pH4, (some of the prodrugs required mixing with 1.5 μL of FA as stabilizer), vortexed, immediately frozen on dry ice and stored at −80° C. until analysis. […] The supernatants were then analyzed by UPLC/MS-MS (Triple Quad™ 6500+). Pharmacokinetic parameters were evaluated using a non-compartmental model of the non-compartmental analysis tool, Pharsight Phoenix WinNonlin® 6.4 software.",
  "data": [
    {"smiles": "C#C[C@]1(CO)O[C@@H](n2cnc3c(N)nc(F)nc32)C[C@@H]1OC(=O)CC(C)(C)c1c(C)cc(C)cc1OC(C)=O", "note": "[Example 21, (2R,3S,5R)-5-(6-amino-2-fluoro-9H-purin-9-yl)-2-ethynyl-2-(hydroxymethyl)tetrahydrofuran-3-yl 3-(2-acetoxy-4,6-dimethylphenyl)-3-methylbutanoate]", "values": [
      {"measurement": "sustained exposure to EFdA out to", "result": "does not afford a sustained release profile"}
    ]}
  ]
}
